Measured values published in the NIST ThermoML archive (doi:10.1021/je400395u).

Test: mn = molality of the nth substance listed, in mol/kg
Conditions: 100 kPa, Liquid; for viscosity: Capillary tube (Ostwald / Ubbelohde) method; for mass density: Vibrating tube method

OC[C@@H](O)[C@H](O)[C@@H](O)CO [xylitol] + O
Conditions | mass density, m1 = 0.2002 [kg/m3] | mass density, m1 = 0.4 [kg/m3] | mass density, m1 = 0.5996 [kg/m3] | mass density, m1 = 0.7997 [kg/m3] | mass density, m1 = 1 [kg/m3] | viscosity, m1 = 0.2002 [mPa·s] | viscosity, m1 = 0.4 [mPa·s] | viscosity, m1 = 0.5996 [mPa·s] | viscosity, m1 = 0.7997 [mPa·s] | viscosity, m1 = 1 [mPa·s]
293.15 K | 1008.14 | 1017.61 | 1026.67 | 1035.36 | 1043.71 | 1.081 | 1.168 | 1.249 | 1.343 | 1.449
303.15 K | 1005.4 | 1014.72 | 1023.62 | 1032.15 | 1040.36 | 0.858 | 0.917 | 0.981 | 1.056 | 1.125
313.15 K | 1001.83 | 1010.99 | 1019.76 | 1028.15 | 1036.24 | 0.699 | 0.743 | 0.792 | 0.845 | 0.901
323.15 K | 997.51 | 1006.53 | 1015.16 | 1023.43 | 1031.37 | 0.582 | 0.617 | 0.655 | 0.695 | 0.739

O=C1O[C@H]([C@@H](O)CO)C(O)=C1O [L-ascorbic acid] + O
Conditions | mass density, 293.15 K [kg/m3] | mass density, 303.15 K [kg/m3] | mass density, 313.15 K [kg/m3] | mass density, 323.15 K [kg/m3] | viscosity, 293.15 K [mPa·s] | viscosity, 303.15 K [mPa·s] | viscosity, 313.15 K [mPa·s] | viscosity, 323.15 K [mPa·s]
m1 = 0.1 | 1005.25 | 1002.56 | 999.06 | 994.78 | 1.042 | 0.828 | 0.677 | 0.565
m1 = 0.2 | 1012.12 | 1009.33 | 1005.69 | 1001.31 | 1.09 | 0.858 | 0.699 | 0.584
m1 = 0.2002 | 1012.12 | 1009.33 | 1005.69 | 1001.31 | 1.09 | 0.858 | 0.699 | 0.584
m1 = 0.3 | 1018.82 | 1015.91 | 1012.2 | 1007.78 | 1.128 | 0.894 | 0.724 | 0.603
m1 = 0.3141 | 1018.82 | 1015.91 | 1012.2 | 1007.78 | 1.128 | 0.894 | 0.724 | 0.603
m1 = 0.4 | 1025.4 | 1022.39 | 1018.62 | 1014.08 | 1.167 | 0.922 | 0.751 | 0.623

OC[C@@H](O)[C@@H](O)[C@H](O)[C@H](O)CO [mannitol] + O
Conditions | mass density, m1 = 0.2003 [kg/m3] | mass density, m1 = 0.4001 [kg/m3] | mass density, m1 = 0.5999 [kg/m3] | mass density, m1 = 0.7997 [kg/m3] | mass density, m1 = 1 [kg/m3] | viscosity, m1 = 0.2003 [mPa·s] | viscosity, m1 = 0.4001 [mPa·s] | viscosity, m1 = 0.5999 [mPa·s] | viscosity, m1 = 0.7997 [mPa·s] | viscosity, m1 = 1 [mPa·s]
293.15 K | 1010.6 | 1022.32 | 1033.48 | 1044.08 | 1054.22 | 1.106 | 1.219 | 1.345 | 1.486 | 1.634
303.15 K | 1007.89 | 1019.47 | 1030.47 | 1040.9 | 1050.86 | 0.875 | 0.957 | 1.048 | 1.151 | 1.256
313.15 K | 1004.33 | 1015.78 | 1026.64 | 1036.96 | 1046.81 | 0.713 | 0.774 | 0.842 | 0.918 | 0.996
323.15 K | 1000.02 | 1011.34 | 1022.08 | 1032.29 | 1042.03 | 0.592 | 0.64 | 0.693 | 0.751 | 0.811

OC[C@@H](O)[C@@H](O)CO [meso-1,2,3,4-butanetetrol] + O
Conditions | mass density, m1 = 0.2002 [kg/m3] | mass density, m1 = 0.4001 [kg/m3] | mass density, m1 = 0.6001 [kg/m3] | mass density, m1 = 0.7984 [kg/m3] | mass density, m1 = 0.9998 [kg/m3] | viscosity, m1 = 0.2002 [mPa·s] | viscosity, m1 = 0.4001 [mPa·s] | viscosity, m1 = 0.6001 [mPa·s] | viscosity, m1 = 0.7984 [mPa·s] | viscosity, m1 = 0.9998 [mPa·s]
293.15 K | 1005.26 | 1012.03 | 1018.54 | 1024.74 | 1030.79 | 1.069 | 1.134 | 1.204 | 1.278 | 1.358
303.15 K | 1002.58 | 1009.24 | 1015.65 | 1021.76 | 1027.73 | 0.849 | 0.895 | 0.947 | 1.001 | 1.058
313.15 K | 999.05 | 1005.61 | 1011.9 | 1017.92 | 1023.81 | 0.69 | 0.727 | 0.766 | 0.806 | 0.849
323.15 K | 994.8 | 1001.29 | 1007.55 | 1013.53 | 1019.39 | 0.576 | 0.604 | 0.634 | 0.665 | 0.698
